The values that follow come from patent US10815460B2, “Three-dimensional differentiation of epiblast spheroids to kidney organoids models stage-specific epithelial physiology, morphogenesis, and disease” (THE BRIGHAM AND WOMEN'S HOSPITAL, INC., priority 2015, dated 2020).

Holding throughout (type): cell-based, human
One data set relates to tubular organoids. Briefly: Transport of fluorescent cargoes in tubular organoids. The method, then:
(§1) To test permeability, media was supplemented with 20 mM HEPES plus Lucifer Yellow™ carbohydrazide potassium salt (Invitrogen, 38 μM) and Rhodamine-8 isothiocyanate dextran (Sigma, 0.5 μM), and imaged by confocal microscopy. For microinjection, 5 μM rhodamine-conjugated dextran solution in mTeSR1 was diluted 1:1 with Phenol Red Solution (0.5%, Sigma) for visualization. 2 nl was microinjected via a pulled glass capillary microneedle on a Nanoject-2 micromanipulator, and monitored in real-time by wide-field epifluorescence. For TEER, 50,000 hPSCs were plated on 24-well transwell plates (Corning) pre-coated with dilute […]™. […] TEER was measured using an EVOM 2™ device (World Precision Instruments).
as §1, with “Rhodamine-B” for “Rhodamine-8”, “0.5” for “0.5 μM),”, “5” for “5 μM”

The test system of the next data set is epiblast spheroids. Description: Epiblast spheroids treated with titrations of cisplatin and gentamicin (KIM-1, toxicity). The text has this:
FIG. 20. […] Scale bars, 50 μm.
(§2) FIG. 27. […] (a) Co-localization of KIM-1 antibody AKG7 with LTL or (b) with a second KIM-1 antibody (KIMlab2). […] (e) Phase contrast time course of tubules in culture. After 120 days of culture (d120), tubules were fixed and stained for LTL. (f) Whole well of a 96-well plate showing kidney organoids. Scale bars, 50 μm. Error bars, s.e.m.

In another data set the test system is kidney organoids. Description: KIM-1 induction in kidney organoids treated with nephrotoxic drugs.
Text: as §2

For a further data set, the system named is hPSC spheroids. Description: hPSC spheroid cavity formation (lumenogenesis) in 3D sandwich culture. The text has this: Cell lines included H9 (WA09), BJ, HDFn, hLR5, hfib2-iPS4, and hfib2-iPS5 (human) and J1, R1, and v6 (mouse). Cells were maintained feeder-free on 3% Reduced Growth Factor GelTrex™ (Life Technologies) for at least one passage in media (mTeSR1 for hPSCs; […] supplement+2i in for mESCs; hESC conditioned media (CM)+leukemia inhibitory factor (LIF)+dox for hLR5 iPSCs) and dissociated with Accutase® or TrypLE™. LD-iPSCs were derived from native hLR5 iPSCs by withdrawing LIF and doxycycline and substituting with FGF2. For thin gel sandwich colonies, cells were plated at 60,000 (primed) or 30,000 (native) cells/well of a 24-well plate or 4-well chamber slide pre-coated with GelTrex™ in media supplemented with 10 μM Rho-kinase inhibitor Y27632 (StemGent). The following day the media was replaced with 500 μL 1.5% GelTrex™ in mTeSR1. Media was changed after 24 hours. […]
For fluorescence intensity quantifications, images were taken in a single imaging session and at identical exposures and processed identically. The number of cavitated colonies (ellipsoid with lumen) versus flat colonies (non-ellipsoid or without a lumen) was scored manually in phase contrast images of living cells, in which lumens were discerned more easily than in fixed samples. For apoptosis, cleaved caspase-3 expression was scored manually, confirmed by nuclear condensation, and divided by the total number of nuclei per wide-field epifluorescent image. […] For each colony, the summed ZO-1 expressing area was expressed as a percentage of the total surface area and then averaged. To quantify intensities, line scans of equal length were drawn through randomly selected structures imaged with identical exposures to obtain raw fluorescence values in NIS Elements software (Nikon). […] For CHIR-induced differentiation, […] individual cells were identified in low-magnification immunofluorescence images using Cell Profiler 2.0 and fluorescence intensities were measured automatically. […] Immunoblots were quantified using the ImageJ Gel Analyzer. […]

A further data set has as its system hPSCs. Briefly: BRY immunofluorescence in hPSC cultures treated with CHIR in mTeSR1. Particulars: 5˜M CHIR, 3D versus 2D cultures plated side-by-side. The text has this: FIG. 2. Cavitated spheroids represent epiblast. (a) Schematic of serial passaging experiment. (b) Representative brightfield images of hPSCs in 3D cultures which were dissociated (colored frames) and passaged (matching colored arrows). Dashed arrows represent serial passages in the 3D condition. […] (c) Hematoxylin and eosin-stained sections of teratomas generated from hPSC serial 3D passages p3, p6, and p9 showing pigmented epithelium (ectoderm), cartilage (mesoderm), and glandular epithelium (endoderm). (d) Cell number (average of duplicate counts for each time point, or AVG of all time points) in 2D and 3D cultures 72 hours after plating. […] (h) Morphology and (i) quantification (n=3) of hPSC colonies cultured in mTeSR1 plus CHIR, compared to controls in mTeSR1 alone. […]
For fluorescence intensity quantifications, images were taken in a single imaging session and at identical exposures and processed identically. The number of cavitated colonies (ellipsoid with lumen) versus flat colonies (non-ellipsoid or without a lumen) was scored manually in phase contrast images of living cells, in which lumens were discerned more easily than in fixed samples. For apoptosis, cleaved caspase-3 expression was scored manually, confirmed by nuclear condensation, and divided by the total number of nuclei per wide-field epifluorescent image. […] Immunoblots were quantified using the ImageJ Gel Analyzer. […]

“Also recorded” adds a separate entry of the source.

`C/C1=C/C(=O)O[C@@H]2C[C@@H](CC[C@H](C)/C=C\CC1)O[C@@](O)([C@@H]1CSC(=O)N1)C2` [latrunculin (Lat)B, Latrunculin B]: the “effect on RD accumulation in tubular organoids” value in the data set on tubular organoids (co-incubation, 2 μM LatB) was “significantly reduced RD accumulation”.
gentamicin: the “sensitivity of epiblast spheroids to drug” value with epiblast spheroids is listed as “exhibited dose-dependent sensitivity”. In addition, in the data set with epiblast spheroids (any dose including 5 mM gentamicin), the “KIM-1 upregulation in epiblast spheroids” value was “did not upregulate KIM-1; also recorded: No KIM-1 expression is observed”. The “KIM-1 expression in organoid tubules” value with kidney organoids (increasing concentrations, 36-48 hours, immunofluorescence) was “expressed apical kidney injury molecule-1 (KIM-1); also recorded: observed at moderate, sub-toxic doses”. The “concentration sufficient to induce KIM-1 in kidney organoids” value with kidney organoids (kidney organoids) is given as about 5 mM.
Regarding `Cc1c[nH]c(-c2cnc(NCCNc3ccc(C#N)cn3)nc2-c2ccc(Cl)cc2Cl)n1` [CHIR], the spheroid formation result in the data set on hPSC spheroids (CHIR added at the time of sandwiching, in mTeSR1) is “inhibited spheroid formation in a dose-dependent manner”. For the same compound, the BRY expression entry with hPSCs was “induced higher levels of BRY expression in 3D cultures than in 2D cultures”.
As for protamine sulfate [PS], in the data set with hPSC spheroids (8 μg/ml protamine sulfate), the 3D cavity formation result is given as “strongly inhibited 3D cavity formation” and the podocalyxin localization result is “mislocalization of podocalyxin to dispersed patches”.
For `O=C(O)CN(CCN(CC(=O)O)CC(=O)O)CC(=O)O` [EDTA], in the data set on tubular organoids (0.5 mM EDTA for one hour), the “luminal RD signal intensity in loaded organoids” value was “decreased”.
